Source: paper PMC5548886 (Cancer Medicine, 2017)

How the values were obtained:
Test in all cases: IHC of tumor biopsies, H-score change on-treatment vs pretreatment
Assay type in all cases: in vivo, human
PTEN = tested on: PTEN
Protocol: (§1) Pharmacodynamic markers were examined using peripheral blood samples, tumor and nevi biopsies (when available) and tumor imaging. BRAF mutation status was determined by Sanger sequencing. Pharmacodynamic markers analyzed, in available tumor/nevus samples obtained before treatment or archival tissue and during treatment on cycle 1, day 8 or day 15, including cytoplasmic p‐MEK, p‐ERK, BIM, c‐KIT, p‐AKT473, pS6 and PTEN, and nuclear p‐ERK, Ki‐67, PARP, cyclin D1, MITF, p27, and p53. Biomarker expression was determined by calculating the percentage of change in the H‐score (14) between on‐treatment and fresh/archival pretreatment specimens. Blood levels of VEGFR‐2 and were assessed before and at multiple time points while on treatment using enzyme‐linked immunosorbent assay (ELISA). […] Changes in standard uptake value (SUV) were determined by a blinded, independent central imaging review panel. Complete metabolic response (CMR) was complete resolution of tumor FDG‐PET uptake so SUV is the same as background. Partial metabolic response (PMR) decrease in sum of the tumor SUV of ≥25% from the baseline scan. Progressive metabolic disease (PMD) was defined as an increase in tumor SUV of ≥25% from the baseline scan, or the appearance of new FDG‐PET uptake in metastatic lesions. Stable metabolic disease (SMD) was defined as a change in tumor SUV between the PMR and PMD criteria.

cyclin D1 = tested on: cyclin D1
Protocol: as §1

pS6 = tested on: pS6
Protocol: as §1

nuclear p-ERK = tested on: nuclear p-ERK
Protocol: as §1

cytoplasmic p-MEK = tested on: cytoplasmic p-MEK
Protocol: as §1

p-AKT473 = tested on: p-AKT473
Protocol: as §1

Compound: Cn1c(Nc2ccc(C(F)(F)F)cc2)nc2cc(Oc3ccnc(-c4ncc(C(F)(F)F)[nH]4)c3)ccc21 [RAF265]
- PTEN % change vs pretreatment, Mean (SD) (PTEN; All patients, n 18): -3.16 (32.4) %
- PTEN % change vs pretreatment, Median (PTEN; All patients, n 18): 0%
- PTEN % change vs pretreatment, Mean (SD) (PTEN; DL 5, n 2): 0%
- PTEN % change vs pretreatment, Median (PTEN; DL 5, n 2): 0%
- PTEN % change vs pretreatment, Mean (SD) (PTEN; DL 6, n 5): -9.4 (27) %
- PTEN % change vs pretreatment, Median (PTEN; DL 6, n 5): 0%
- PTEN % change vs pretreatment, Mean (SD) (PTEN; DLs 1 - 4, n 8): -5 (44.1) %
- PTEN % change vs pretreatment, Median (PTEN; DLs 1 - 4, n 8): -7.4%
- PTEN % change vs pretreatment, Mean (SD) (PTEN; DLs 7 and 7.1, n 3): 10 (17.3) %
- PTEN % change vs pretreatment, Median (PTEN; DLs 7 and 7.1, n 3): 0%
- Cyclin D1 % change vs pretreatment, Mean (SD) (cyclin D1; All patients, n 23): +0.19 (93.7) %
- Cyclin D1 % change vs pretreatment, Median (cyclin D1; All patients, n 23): -25%
- Cyclin D1 % change vs pretreatment, Mean (SD) (cyclin D1; DL 5, n 3): +56.8 (125.6) %
- Cyclin D1 % change vs pretreatment, Median (cyclin D1; DL 5, n 3): +5.00%
- Cyclin D1 % change vs pretreatment, Mean (SD) (cyclin D1; DL 6, n 5): -49.12 (30.7) %
- Cyclin D1 % change vs pretreatment, Median (cyclin D1; DL 6, n 5): -48.9%
- Cyclin D1 % change vs pretreatment, Mean (SD) (cyclin D1; DLs 1 - 4, n 10): -4.5 (95) %
- Cyclin D1 % change vs pretreatment, Median (cyclin D1; DLs 1 - 4, n 10): -24%
- Cyclin D1 % change vs pretreatment, Mean (SD) (cyclin D1; DLs 7 and 7.1, n 5): +25 (113.6) %
- Cyclin D1 % change vs pretreatment, Median (cyclin D1; DLs 7 and 7.1, n 5): 0%
- cyclin D1, median decrease (cyclin D1; in vivo): 25%
- PS6 % change vs pretreatment, Mean (SD) (pS6; All patients, n 19): +6.9 (70.8) %
- PS6 % change vs pretreatment, Median (pS6; All patients, n 19): -13%
- PS6 % change vs pretreatment, Mean (SD) (pS6; DL 5, n 1): +255.6%
- PS6 % change vs pretreatment, Median (pS6; DL 5, n 1): +255.6%
- pS6, median decrease (pS6; DL 6): 35.8%
- PS6 % change vs pretreatment, Mean (SD) (pS6; DL 6, n 6): -20.6 (29.1) %
- PS6 % change vs pretreatment, Median (pS6; DL 6, n 6): -35.8%
- PS6 % change vs pretreatment, Mean (SD) (pS6; DLs 1 - 4, n 8): -16.8 (20.9) %
- PS6 % change vs pretreatment, Median (pS6; DLs 1 - 4, n 8): -18.9%
- PS6 % change vs pretreatment, Mean (SD) (pS6; DLs 7 and 7.1, n 4): 33.4 (55.7) %
- PS6 % change vs pretreatment, Median (pS6; DLs 7 and 7.1, n 4): +16.3%
- nuclear pERK % change vs pretreatment, Mean (SD) (nuclear p-ERK; All patients, n 21): -2 (51.6) %
- nuclear pERK % change vs pretreatment, Median (nuclear p-ERK; All patients, n 21): 0%
- nuclear pERK % change vs pretreatment, Mean (SD) (nuclear p-ERK; DL 5, n 2): +18.2 (35.8) %
- nuclear pERK % change vs pretreatment, Median (nuclear p-ERK; DL 5, n 2): +18.2%
- nuclear pERK % change vs pretreatment, Mean (SD) (nuclear p-ERK; DL 6, n 5): -41.8 (48) %
- nuclear pERK % change vs pretreatment, Median (nuclear p-ERK; DL 6, n 5): -22.2%
- nuclear pERK % change vs pretreatment, Mean (SD) (nuclear p-ERK; DLs 1 - 4, n 10): +21.1 (52.13) %
- nuclear pERK % change vs pretreatment, Median (nuclear p-ERK; DLs 1 - 4, n 10): 0%
- nuclear pERK % change vs pretreatment, Mean (SD) (nuclear p-ERK; DLs 7 and 7.1, n 4): -20.3 (31.3) %
- nuclear pERK % change vs pretreatment, Median (nuclear p-ERK; DLs 7 and 7.1, n 4): -7.6%
- cytoplasmic pMEK % change vs pretreatment, Mean (SD) (cytoplasmic p-MEK; All patients, n 23): -4.3 (32) %
- cytoplasmic pMEK % change vs pretreatment, Median (cytoplasmic p-MEK; All patients, n 23): -9.1%
- cytoplasmic pMEK % change vs pretreatment, Mean (SD) (cytoplasmic p-MEK; DL 5, n 2): 0%
- cytoplasmic pMEK % change vs pretreatment, Median (cytoplasmic p-MEK; DL 5, n 2): 0%
- cytoplasmic pMEK % change vs pretreatment, Mean (SD) (cytoplasmic p-MEK; DL 6, n 6): -16.1 (17.3) %
- cytoplasmic pMEK % change vs pretreatment, Median (cytoplasmic p-MEK; DL 6, n 6): -15.3%
- cytoplasmic pMEK % change vs pretreatment, Mean (SD) (cytoplasmic p-MEK; DLs 1 - 4, n 11): +0.8 (44.4) %
- cytoplasmic pMEK % change vs pretreatment, Median (cytoplasmic p-MEK; DLs 1 - 4, n 11): -11.1%
- cytoplasmic pMEK % change vs pretreatment, Mean (SD) (cytoplasmic p-MEK; DLs 7 and 7.1, n 4): -2.6 (5.3) %
- cytoplasmic pMEK % change vs pretreatment, Median (cytoplasmic p-MEK; DLs 7 and 7.1, n 4): 0%
- PAKT473 % change vs pretreatment, Mean (SD) (p-AKT473; All patients, n 19): +1.2 (105.4) %
- PAKT473 % change vs pretreatment, Median (p-AKT473; All patients, n 19): -4.6%
- PAKT473 % change vs pretreatment, Mean (SD) (p-AKT473; DL 5, n 1): -4.6%
- PAKT473 % change vs pretreatment, Median (p-AKT473; DL 5, n 1): -4.6%
- p-AKT, median decrease (p-AKT473; DL 6): 46.7%
- PAKT473 % change vs pretreatment, Mean (SD) (p-AKT473; DL 6, n 4): -48.4(55.9) %
- PAKT473 % change vs pretreatment, Median (p-AKT473; DL 6, n 4): -46.7%
- PAKT473 % change vs pretreatment, Mean (SD) (p-AKT473; DLs 1 - 4, n 11): +20.1(132.9) %
- PAKT473 % change vs pretreatment, Median (p-AKT473; DLs 1 - 4, n 11): -20%
